Legend:
Conditions in all cases: 72 h
Caco-2 [1] = test: relative viability EC50 (midpoint between 100% and the lowest measured viability); higher = less toxic
HepG2 [2] = test: as above
U2OS [3] = test: as above
Calu-3 [4] = test: as above
Vero E6 [5] = test: as above
Caco-2 [6] = test: drug sensitivity score (DSS) for viability; higher = more toxic; extreme values may be limits of the assay
HepG2 [7] = test: as above
U2OS [8] = test: as above
Calu-3 [9] = test: as above
Vero E6 [10] = test: as above
Caco-2 [11] = test: cell viability relative to DMSO; higher = less toxic
HepG2 [12] = test: as above
U2OS [13] = test: as above
Calu-3 [14] = test: as above
Vero E6 [15] = test: as above

Structure (SMILES)	relative viability EC50 (Caco-2 [1]) [µM]	relative viability EC50 (HepG2 [2]) [µM]	relative viability EC50 (U2OS [3]) [µM]	relative viability EC50 (Calu-3 [4]) [µM]	relative viability EC50 (Vero E6 [5]) [µM]	drug sensitivity score (Caco-2 [6])	drug sensitivity score (HepG2 [7])	drug sensitivity score (U2OS [8])	drug sensitivity score (Calu-3 [9])	drug sensitivity score (Vero E6 [10])	cell viability (Caco-2 [11]; 1 nM) [%]	cell viability (Caco-2 [11]; 10 nM) [%]	cell viability (Caco-2 [11]; 100 nM) [%]	cell viability (Caco-2 [11]; 1000 nM) [%]	cell viability (Caco-2 [11]; 10000 nM) [%]	cell viability (HepG2 [12]; 1 nM) [%]	cell viability (HepG2 [12]; 10 nM) [%]	cell viability (HepG2 [12]; 100 nM) [%]	cell viability (HepG2 [12]; 1000 nM) [%]	cell viability (HepG2 [12]; 10000 nM) [%]	cell viability (U2OS [13]; 1 nM) [%]	cell viability (U2OS [13]; 10 nM) [%]	cell viability (U2OS [13]; 100 nM) [%]	cell viability (U2OS [13]; 1000 nM) [%]	cell viability (U2OS [13]; 10000 nM) [%]	cell viability (Calu-3 [14]; 1 nM) [%]	cell viability (Calu-3 [14]; 10 nM) [%]	cell viability (Calu-3 [14]; 100 nM) [%]	cell viability (Calu-3 [14]; 1000 nM) [%]	cell viability (Calu-3 [14]; 10000 nM) [%]	cell viability (Vero E6 [15]; 1 nM) [%]	cell viability (Vero E6 [15]; 10 nM) [%]	cell viability (Vero E6 [15]; 100 nM) [%]	cell viability (Vero E6 [15]; 1000 nM) [%]	cell viability (Vero E6 [15]; 10000 nM) [%]
O=C1c2c(O)cc(O)cc2O[C@H](c2cc(O)c(O)c(O)c2)[C@H]1O [dihydromyricetin]	> 10	> 10	> 10	> 10	> 10	0	0	0	0	0	102	92.3	95.6	100	97.4	95.8	94.5	98.5	94.7	103	102	95.8	103	106	104	105	98.2	93.7	111	90.3	96.1	96	96.4	98.4	103
O=C(NCCCN1CCOCC1)c1cnn2c(-c3ccccc3)cc(-c3ccccc3)nc12 [reversan]	> 10	> 10	> 10	> 10	> 10	1.8	0	0.2	2	0.3	104	97	92.2	88.8	75.6	91.7	95.6	92.6	102	93.3	103	103	97.5	99.5	85.8	105	101	107	91.8	75.4	97.8	100	103	103	82.6
CC1Sc2c(C(=O)O)c(=O)c3cc(F)c(N4CCNCC4)cc3n21 (stereo not given) [ulifloxacin]	> 10	> 10	> 10	> 10	> 10	0	0.7	0.5	0	0	95.8	124	107	108	104	112	98.9	86.5	98.2	78.9	99.1	101	98.2	97.9	83.8	116	95.3	94	106	102	96.5	95.9	109	104	90.5
CC(=O)OC[C@H]1O[C@@](COC(C)=O)(O[C@H]2O[C@H](COC(C)=O)[C@@H](OC(C)=O)[C@H](OC(C)=O)[C@H]2OC(C)=O)[C@@H](OC(C)=O)[C@@H]1OC(C)=O [sucrose-octaacetate]	> 10	> 10	> 10	> 10	> 10	0	0	0	0	0	102	99.6	97	93	98.4	93	100	102	103	109	95.1	89.6	97.7	102	102	102	96.3	99	103	108	98.5	100	94.1	94.6	110
Oc1nc(O)c2nc(O)[nH]c2n1 [uric-acid]	> 10	> 10	> 10	> 10	> 10	0	0	0	0	0	96.5	98	92.6	91	95.9	94.7	97.1	95.9	92.5	96	101	107	99.6	102	98.4	96	95.3	93.5	98.4	101	98	104	97.9	102	98.4
CO[C@H]1/C=C/O[C@@]2(C)Oc3c(C)c(O)c4c(O)c(c5c(nc6cc(C)ccn65)c4c3C2=O)NC(=O)/C(C)=C\C=C\[C@H](C)[C@H](O)[C@@H](C)[C@@H](O)[C@@H](C)[C@H](OC(C)=O)[C@@H]1C [rifaximin]	> 10	> 10	> 10	> 10	> 10	0	0	0	0	0	137	112	87	98.2	96.4	110	95.3	102	104	106	96.7	99.3	94.6	93.3	96.4	94.7	95	89	101	94.6	106	93.6	108	106	117
Cn1c(NCCN(CCO)CCCc2ccc([N+](=O)[O-])cc2)cc(=O)n(C)c1=O [nifekalant]	> 10	> 10	> 10	> 10	> 10	1.8	0	0	0	0	107	96.7	86.9	90.8	92.5	109	106	94	86.1	109	95.1	94.3	98.9	97.7	99.4	96.2	103	104	110	95.3	89.8	102	91.6	102	104

— the supplement of paper PMC13380429
